Marks after values point to notes of the source that are not given here.
system: dextran sodium sulfate-induced ulcerative colitis model mice; assay: not given; set-up: method as in Dong et al., 2022; settings: oral 40 mg/kg for 7 days, DSS-induced ulcerative colitis model mice; ref Dong et al., 2022; cited from earlier work

SMILES | effect on intestinal mucosal barrier function and inflammatory reaction
COc1ccc2cc3[n+](cc2c1OC)CCc1cc2c(cc1-3)OCO2 [Berberine, berberine] | significantly improved intestinal mucosal barrier function

system: not listed separately; assay: Pharmacokinetics of GQD constituents in the portal vein of mice after oral GQD; assay type: in vivo, Kunming mice; settings: both, Kunming, mouse, portal vein plasma, po, […], portal vein plasma, mice, oral GQD extract […]; read-out: Tmax
Description: (§1) Fifty-four Kunming mice were randomly divided into nine groups according to body weight and gender (3 male and three female in each group). Each group was orally administered with water solution (0.2 ml/10 g body weight) of the GQD extract powder at the dosage of 6.1 g/kg body weight. The dosage of GQD extract powder equals to 18 g/kg herbal pieces of GQD, which is equivalent to its clinical dosage. At each designed time point (0.08, 0.25, 0.5, 1, 2, 4, 8, 12, and 24 h) after oral administration, six mice were anesthetized with ether, and blood was collected from the portal vein (about 0.2 ml, aspirated in a 1 ml heparinized syringe) and then the systemic circulation (about 0.2 ml, collected in heparinized tubes after removal of the eyeball) of the mice to prepare plasma samples, and the livers and the colons were removed to prepare respective homogenate. After pretreatment, the concentrations of 19 major constituents of GQD in each sample were measured by the validated LC-MS/MS method (see “2.3”). Then the C-T curves of the constituents in the plasma and the tissue homogenates were respectively drawn and their pharmacokinetic parameters were respectively calculated.
(§2) It should be noted that the pharmacokinetic parameters of a GQD constituent was calculated based on its average concentration in six mice at each time point. The results were expressed as mean ± SD.

SMILES | Tmax
O=c1c(-c2ccc(O)cc2)coc2c([C@@H]3O[C@H](CO)[C@@H](O)[C@H](O)[C@H]3O)c(O)ccc12 [Puerarin, puerarin] | 0.25 to 0.5 h
COc1ccc2cc3[n+](cc2c1OC)CCc1cc2c(cc1-3)OCO2 [Berberine, berberine] | 4 h
COc1cc2c(cc1O)CC[n+]1cc3c(OC)c(OC)ccc3cc1-2 [Jatrorrhizine, jatrorrhizine] | 4 h
COc1c(O)cc(O)c2c(=O)cc(-c3ccccc3)oc12 [Wogonin, wogonin] | 2 h

same assay, conditions: both, Kunming, mouse; portal vein plasma, mice, oral GQD extract 6.1 g/kg

SMILES | Cmax | MRT
O=c1c(-c2ccc(O)cc2)coc2c([C@@H]3O[C@H](CO)[C@@H](O)[C@H](O)[C@H]3O)c(O)ccc12 [Puerarin, puerarin] | 1990 ng/mL | 3.2 h
COc1ccc2cc3[n+](cc2c1OC)CCc1cc2c(cc1-3)OCO2 [Berberine, berberine] | 191 ng/mL | 5.5 h
COc1cc2c(cc1O)CC[n+]1cc3c(OC)c(OC)ccc3cc1-2 [Jatrorrhizine, jatrorrhizine] | 16.6 ng/mL | 4.8 h
COc1c(O)cc(O)c2c(=O)cc(-c3ccccc3)oc12 [Wogonin, wogonin] | 1220 ng/mL | 3.3 h

same assay, conditions: both, Kunming, mouse; portal vein plasma, mice, oral GQD extract 6.1 g/kg; read-out: AUC0–24 h

SMILES | AUC(0-t)
O=c1c(-c2ccc(O)cc2)coc2c([C@@H]3O[C@H](CO)[C@@H](O)[C@H](O)[C@H]3O)c(O)ccc12 [Puerarin, puerarin] | 6710 ng·h/mL
COc1ccc2cc3[n+](cc2c1OC)CCc1cc2c(cc1-3)OCO2 [Berberine, berberine] | 1420 ng·h/mL
COc1cc2c(cc1O)CC[n+]1cc3c(OC)c(OC)ccc3cc1-2 [Jatrorrhizine, jatrorrhizine] | 116 ng·h/mL
COc1c(O)cc(O)c2c(=O)cc(-c3ccccc3)oc12 [Wogonin, wogonin] | 4510 ng·h/mL

same assay, conditions: both, Kunming, mouse; portal vein plasma, mice, oral GQD extract 6.1 g/kg; read-out: T1/2 (converted)

SMILES | half-life
O=c1c(-c2ccc(O)cc2)coc2c([C@@H]3O[C@H](CO)[C@@H](O)[C@H](O)[C@H]3O)c(O)ccc12 [Puerarin, puerarin] | 174 min
COc1ccc2cc3[n+](cc2c1OC)CCc1cc2c(cc1-3)OCO2 [Berberine, berberine] | 480 min
COc1cc2c(cc1O)CC[n+]1cc3c(OC)c(OC)ccc3cc1-2 [Jatrorrhizine, jatrorrhizine] | 378 min
COc1c(O)cc(O)c2c(=O)cc(-c3ccccc3)oc12 [Wogonin, wogonin] | 60 min

system: not given; assay: not given; set-up: method as in Zhai et al., 2020; settings: at 10 μM; ref Zhai et al., 2020; cited from earlier work

SMILES | anti-inflammatory effect
COc1ccc2cc3[n+](cc2c1OC)CCc1cc2c(cc1-3)OCO2 [Berberine, berberine] | significant anti-inflammatory effect

system: rats with irritable bowel syndrome; assay: not given; set-up: method as in Wang et al., 2021; settings: oral 6–24 mg/kg, ref Wang et al., 2021; cited from earlier work

SMILES | effect on irritable bowel syndrome symptoms
O=c1c(-c2ccc(O)cc2)coc2c([C@@H]3O[C@H](CO)[C@@H](O)[C@H](O)[C@H]3O)c(O)ccc12 [Puerarin, puerarin] | improved symptoms of rats with irritable bowel syndrome

system: dextran sodium sulfate-induced colitis; assay: not given; set-up: method as in Jeon et al., 2020; settings: oral 10 or 50 mg/kg; ref Jeon et al., 2020; cited from earlier work

SMILES | effect on dextran sodium sulfate-induced colitis
O=c1c(-c2ccc(O)cc2)coc2c([C@@H]3O[C@H](CO)[C@@H](O)[C@H](O)[C@H]3O)c(O)ccc12 [Puerarin, puerarin] | alleviated dextran sodium sulfate-induced colitis

system: not listed separately; assay: Pharmacokinetics/tissue distribution of GQD constituents in the livers of mice after oral GQD; assay type: in vivo, Kunming mice; settings: both, Kunming, mouse, liver (homogenate), po, […], liver, mice, oral GQD extract […]; read-out: T1/2 (converted)
Description: (§3) The liver and the colon homogenates were prepared with 10 times (V: W) the volume of ascorbic acid solution (200 μg/ml). Then the homogenates were pretreated as plasma to obtain the tissue samples for LC-MS/MS analysis. Fifty-four Kunming mice were randomly divided into nine groups according to body weight and gender (3 male and three female in each group). […] Then the C-T curves of the constituents in the plasma and the tissue homogenates were respectively drawn and their pharmacokinetic parameters were respectively calculated. […] It should be noted that the pharmacokinetic parameters of a GQD constituent was calculated based on its average concentration in six mice at each time point. The results were expressed as mean ± SD.

SMILES | half-life
O=c1c(-c2ccc(O)cc2)coc2c([C@@H]3O[C@H](CO)[C@@H](O)[C@H](O)[C@H]3O)c(O)ccc12 [Puerarin, puerarin] | 180 to 240 min
COc1ccc2cc3[n+](cc2c1OC)CCc1cc2c(cc1-3)OCO2 [Berberine, berberine] | ~600 min
COc1cc2c(cc1O)CC[n+]1cc3c(OC)c(OC)ccc3cc1-2 [Jatrorrhizine, jatrorrhizine] | 144 min
COc1c(O)cc(O)c2c(=O)cc(-c3ccccc3)oc12 [Wogonin, wogonin] | 120 to 180 min

same assay, conditions: both, Kunming, mouse, liver (homogenate); liver, mice, oral GQD extract 6.1 g/kg

SMILES | Cmax | MRT
O=c1c(-c2ccc(O)cc2)coc2c([C@@H]3O[C@H](CO)[C@@H](O)[C@H](O)[C@H]3O)c(O)ccc12 [Puerarin, puerarin] | 2870 ng/g | 3.8 h
COc1ccc2cc3[n+](cc2c1OC)CCc1cc2c(cc1-3)OCO2 [Berberine, berberine] | 427 ng/g | 8.3 h
COc1cc2c(cc1O)CC[n+]1cc3c(OC)c(OC)ccc3cc1-2 [Jatrorrhizine, jatrorrhizine] | 136 ng/g | 6.6 h
COc1c(O)cc(O)c2c(=O)cc(-c3ccccc3)oc12 [Wogonin, wogonin] | 839 ng/g | 5 h

same assay, conditions: both, Kunming, mouse, liver (homogenate); liver, mice, oral GQD extract 6.1 g/kg; read-out: Tmax

SMILES | Tmax
O=c1c(-c2ccc(O)cc2)coc2c([C@@H]3O[C@H](CO)[C@@H](O)[C@H](O)[C@H]3O)c(O)ccc12 [Puerarin, puerarin] | 0.5 h
COc1ccc2cc3[n+](cc2c1OC)CCc1cc2c(cc1-3)OCO2 [Berberine, berberine] | 4 h
COc1cc2c(cc1O)CC[n+]1cc3c(OC)c(OC)ccc3cc1-2 [Jatrorrhizine, jatrorrhizine] | 4 h
COc1c(O)cc(O)c2c(=O)cc(-c3ccccc3)oc12 [Wogonin, wogonin] | 4 h

same assay, conditions: liver, mice, oral GQD extract […]

SMILES | T1/2
O=c1c(-c2ccc(O)cc2)coc2c([C@@H]3O[C@H](CO)[C@@H](O)[C@H](O)[C@H]3O)c(O)ccc12 [Puerarin, puerarin] | 4.0 h
COc1ccc2cc3[n+](cc2c1OC)CCc1cc2c(cc1-3)OCO2 [Berberine, berberine] | 10.1# h
COc1c(O)cc(O)c2c(=O)cc(-c3ccccc3)oc12 [Wogonin, wogonin] | 2.6 h

system: not listed separately; assay: Pharmacokinetics of GQD constituents in the systemic circulation of mice after oral GQD; assay type: in vivo, Kunming mice; settings: both, Kunming, mouse, systemic circulation plasma, po, […], systemic circulation plasma, mice, oral GQD […]; read-out: T1/2 (converted)
Description: as §1, §2

SMILES | half-life
O=c1c(-c2ccc(O)cc2)coc2c([C@@H]3O[C@H](CO)[C@@H](O)[C@H](O)[C@H]3O)c(O)ccc12 [Puerarin, puerarin] | 204 min
COc1ccc2cc3[n+](cc2c1OC)CCc1cc2c(cc1-3)OCO2 [Berberine, berberine] | ~360 min
COc1cc2c(cc1O)CC[n+]1cc3c(OC)c(OC)ccc3cc1-2 [Jatrorrhizine, jatrorrhizine] | 258 min
COc1c(O)cc(O)c2c(=O)cc(-c3ccccc3)oc12 [Wogonin, wogonin] | 90 min

same assay, conditions: both, Kunming, mouse, systemic circulation plasma, po, […], systemic circulation plasma, mice, oral GQD […]; read-out: Tmax

SMILES | Tmax
O=c1c(-c2ccc(O)cc2)coc2c([C@@H]3O[C@H](CO)[C@@H](O)[C@H](O)[C@H]3O)c(O)ccc12 [Puerarin, puerarin] | 15 to 30 min
COc1ccc2cc3[n+](cc2c1OC)CCc1cc2c(cc1-3)OCO2 [Berberine, berberine] | 60 min
COc1cc2c(cc1O)CC[n+]1cc3c(OC)c(OC)ccc3cc1-2 [Jatrorrhizine, jatrorrhizine] | 4.8 min
COc1c(O)cc(O)c2c(=O)cc(-c3ccccc3)oc12 [Wogonin, wogonin] | 120 min

same assay, conditions: both, Kunming, mouse; systemic circulation plasma, mice, oral GQD 6.1 g/kg

SMILES | Cmax | MRT
O=c1c(-c2ccc(O)cc2)coc2c([C@@H]3O[C@H](CO)[C@@H](O)[C@H](O)[C@H]3O)c(O)ccc12 [Puerarin, puerarin] | 1580 ng/mL | 3.3 h
COc1ccc2cc3[n+](cc2c1OC)CCc1cc2c(cc1-3)OCO2 [Berberine, berberine] | 85.4 ng/mL | 5.4 h
COc1cc2c(cc1O)CC[n+]1cc3c(OC)c(OC)ccc3cc1-2 [Jatrorrhizine, jatrorrhizine] | 10.1 ng/mL | 3.9 h
COc1c(O)cc(O)c2c(=O)cc(-c3ccccc3)oc12 [Wogonin, wogonin] | 64.7 ng/mL | 3.6 h

same assay, conditions: both, Kunming, mouse; systemic circulation plasma, mice, oral GQD 6.1 g/kg; read-out: AUC0–24 h

SMILES | AUC(0-t)
O=c1c(-c2ccc(O)cc2)coc2c([C@@H]3O[C@H](CO)[C@@H](O)[C@H](O)[C@H]3O)c(O)ccc12 [Puerarin, puerarin] | 5230 ng·h/mL
COc1ccc2cc3[n+](cc2c1OC)CCc1cc2c(cc1-3)OCO2 [Berberine, berberine] | 419 ng·h/mL
COc1cc2c(cc1O)CC[n+]1cc3c(OC)c(OC)ccc3cc1-2 [Jatrorrhizine, jatrorrhizine] | 26.3 ng·h/mL
COc1c(O)cc(O)c2c(=O)cc(-c3ccccc3)oc12 [Wogonin, wogonin] | 300 ng·h/mL

same assay, conditions: systemic circulation plasma, mice, oral GQD […]

SMILES | T1/2
COc1ccc2cc3[n+](cc2c1OC)CCc1cc2c(cc1-3)OCO2 [Berberine, berberine] | 5.3 h

system: not listed separately; assay: Pharmacokinetics/tissue distribution of GQD constituents in the colons of mice after oral GQD; assay type: in vivo, Kunming mice; settings: both, Kunming, mouse, colon (homogenate), po, […], colon, mice, oral GQD extract […]; read-out: T1/2 (converted)
Description: as §3

SMILES | half-life
O=c1c(-c2ccc(O)cc2)coc2c([C@@H]3O[C@H](CO)[C@@H](O)[C@H](O)[C@H]3O)c(O)ccc12 [Puerarin, puerarin] | 60 to 240 min
COc1ccc2cc3[n+](cc2c1OC)CCc1cc2c(cc1-3)OCO2 [Berberine, berberine] | 210 min
COc1cc2c(cc1O)CC[n+]1cc3c(OC)c(OC)ccc3cc1-2 [Jatrorrhizine, jatrorrhizine] | 300 min
COc1c(O)cc(O)c2c(=O)cc(-c3ccccc3)oc12 [Wogonin, wogonin] | 120 to 180 min

same assay, conditions: both, Kunming, mouse, colon (homogenate); colon, mice, oral GQD extract 6.1 g/kg

SMILES | Cmax | MRT
O=c1c(-c2ccc(O)cc2)coc2c([C@@H]3O[C@H](CO)[C@@H](O)[C@H](O)[C@H]3O)c(O)ccc12 [Puerarin, puerarin] | 61600 ng/g | 5.9 h
COc1ccc2cc3[n+](cc2c1OC)CCc1cc2c(cc1-3)OCO2 [Berberine, berberine] | 6230 ng/g | 6 h
COc1cc2c(cc1O)CC[n+]1cc3c(OC)c(OC)ccc3cc1-2 [Jatrorrhizine, jatrorrhizine] | 2100 ng/g | 6.2 h
COc1c(O)cc(O)c2c(=O)cc(-c3ccccc3)oc12 [Wogonin, wogonin] | 535 ng/g | 6.1 h

same assay, conditions: both, Kunming, mouse, colon (homogenate); colon, mice, oral GQD extract 6.1 g/kg; read-out: Tmax

SMILES | Tmax
O=c1c(-c2ccc(O)cc2)coc2c([C@@H]3O[C@H](CO)[C@@H](O)[C@H](O)[C@H]3O)c(O)ccc12 [Puerarin, puerarin] | 4 h
COc1ccc2cc3[n+](cc2c1OC)CCc1cc2c(cc1-3)OCO2 [Berberine, berberine] | 4 h
COc1cc2c(cc1O)CC[n+]1cc3c(OC)c(OC)ccc3cc1-2 [Jatrorrhizine, jatrorrhizine] | 4 h
COc1c(O)cc(O)c2c(=O)cc(-c3ccccc3)oc12 [Wogonin, wogonin] | 4 h

same assay, conditions: colon, mice, oral GQD extract […]

SMILES | T1/2
O=c1c(-c2ccc(O)cc2)coc2c([C@@H]3O[C@H](CO)[C@@H](O)[C@H](O)[C@H]3O)c(O)ccc12 [Puerarin, puerarin] | 1.3 h
COc1c(O)cc(O)c2c(=O)cc(-c3ccccc3)oc12 [Wogonin, wogonin] | 3.2 h
